Patent publication US20040067483A1, “Compositions, methods and kits for identying protein-protein interaction disrupting agents” (priority 2003, published 2004)

Biological target: T1, interaction between TGFR (RI) and FKPB12 (Homo sapiens, UniProt P62942)
T1 construct: expressed in transfected cells; host or cells: 293A cells
Assay: Mammalian reverse two-hybrid system, GFP reporter, stable cell line (pCMV-tetOP-AD-RI-IRES-BD-FKBP12)
Format: cell-based
Conditions: 293A cells; 1 μg/ml Dox, 48 hrs; FK506 100 nM, AG1478 2.5 μM; FIG. 2
Method: Green Fluorescence Protein (GFP). To directly assay the expression of GFP, cells were cultured in 96 or 384 well low fluorescence assay plates with 100 or 50 μl of DMEM medium. Dox and agents were added at concentrations described below. Following 48-hrs of treatment, the medium in each well was replaced with PBS. The intensity of GFP was directly measured at 485 mn excitation and 525 nm emission with a fluorescence multi-well plate reader (CytoFluor II, PerSeptive Biosystems or Wallac Victor V Stacker, Perkin Elmer).
The mammalian reverse two-hybrid system of the present invention was tested with this protein-protein interaction pair to evaluate if the effect of FK506 on disrupting the interaction can be detected. To achieve this, the cytoplasmic domain of the TGFR (RI) was fused with the transcriptional activation domain (AD) of VP16 and FKBP12 was fused with the Gal4 DNA binding domain (BD).
A stable cell line harboring the construct TetR-KRAB, GFP reporter construct, and the construct pCMV-tetOP-AD-RI-IRES-BD-FKBP12 was selected to evaluate the effect of drug molecule FK506 on the interaction between TGFR (RI) and FKPB12. The intensity of GFP expression was monitored following 48 hrs of treatment of the cells with the inducer Dox and the agent FK506.
Expression of the GFP reporter gene was evaluated following the treatment. […]

T1 sequence (P62942 whole entry): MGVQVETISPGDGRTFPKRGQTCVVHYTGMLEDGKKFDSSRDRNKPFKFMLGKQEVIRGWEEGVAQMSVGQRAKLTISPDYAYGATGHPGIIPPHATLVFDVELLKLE

- Dox induced GFP expression (GFP reporter gene): no effect
Compound: COc1cc2ncnc(Nc3cccc(Cl)c3)c2cc1OC [AG1478]
